Results: ChEMBL document CHEMBL3885881, “DrugMatrix”

Species on record: Rattus norvegicus
Assay: DrugMatrix - Regimen: Daily Repeat
Format: toxicity, organism-based, Sprague-Dawley
Set-up: regimen Daily Repeat, gender Male, age 6-8 weeks
Details: in vivo, po, route oral GAVAGE, vehicle 100 % WATER; for ABSOLUTE BASOPHIL / ABSOLUTE EOSINOPHIL / ABSOLUTE LYMPHOCYTE / ABSOLUTE MONOCYTE / ABSOLUTE SEGMENTED NEUTROPHIL / BASOPHIL / EOSINOPHIL / ERYTHROCYTE COUNT / HEMATOCRIT / HEMOGLOBIN / LEUKOCYTE COUNT / LYMPHOCYTE / MEAN CORPUSCULAR HEMOGLOBIN / MEAN CORPUSCULAR HEMOGLOBIN CONCENTRATION / MEAN CORPUSCULAR VOLUME / MONOCYTE / NEUTROPHIL / NUCLEATED RED BLOOD CELLS / PLATELET COUNT: tissue Blood; for ALANINE AMINOTRANSFERASE / ALBUMIN / ALKALINE PHOSPHATASE / ASPARTATE AMINOTRANSFERASE / BLOOD UREA NITROGEN / CARBON DIOXIDE / CHLORIDE / CHOLESTEROL / CREATINE PHOSPHOKINASE / CREATININE / GLUCOSE / LACTATE DEHYDROGENASE / LIPASE / PHOSPHORUS / POTASSIUM / SODIUM / TOTAL BILIRUBIN / TOTAL PROTEIN / URIC ACID: tissue Plasma
[1] = 0 mg/kg, 72 h, dose level Control, time 3 day
[2] = 0 mg/kg, 120 h, dose level Control, time 5 day
[3] = 11 mg/kg, 72 h, dose level Low, time 3 day

CN(C)C(=O)Oc1cccc([N+](C)(C)C)c1.[Br-] [NEOSTIGMINE BROMIDE]
ABSOLUTE BASOPHIL [1]: 0 CELLS/uL
ABSOLUTE EOSINOPHIL [1]: 32.5 CELLS/uL
ABSOLUTE LYMPHOCYTE [1]: 9305.83 CELLS/uL
ABSOLUTE MONOCYTE [1]: 43.83 CELLS/uL
ABSOLUTE SEGMENTED NEUTROPHIL [1]: 817.83 CELLS/uL
BASOPHIL [1]: 0%
EOSINOPHIL [1]: 0.33%
ERYTHROCYTE COUNT [1]: 5.38 x10E6/uL
HEMATOCRIT [1]: 33.63%
HEMOGLOBIN [1]: 13.17 G/DL
LEUKOCYTE COUNT [1]: 10.2 x10E3/uL
LYMPHOCYTE [1]: 91.17%
MEAN CORPUSCULAR HEMOGLOBIN [1]: 24.5 pg
MEAN CORPUSCULAR HEMOGLOBIN CONCENTRATION [1]: 39.13 G/DL
MEAN CORPUSCULAR VOLUME [1]: 62.53 fL
MONOCYTE [1]: 0.5%
NEUTROPHIL [1]: 8%
NUCLEATED RED BLOOD CELLS [1]: 0.17 /100WBC
PLATELET COUNT [1]: 858 x10E3/uL
ALANINE AMINOTRANSFERASE [1]: 55.67 u/L
ALBUMIN [1]: 4.07 G/DL
ALKALINE PHOSPHATASE [1]: 337 u/L
ASPARTATE AMINOTRANSFERASE [1]: 84 u/L
BLOOD UREA NITROGEN [1]: 13.17 mg/dL
CARBON DIOXIDE [1]: 34.17 mmol/L
CHLORIDE [1]: 99.33 MEQ/L
CHOLESTEROL [1]: 78.83 mg/dL
CREATINE PHOSPHOKINASE [1]: 576.83 u/L
CREATININE [1]: 0.17 mg/dL
GLUCOSE [1]: 152.67 mg/dL
LACTATE DEHYDROGENASE [1]: 147.83 u/L
LIPASE [1]: 9.5 u/L
PHOSPHORUS [1]: 10.78 mg/dL
POTASSIUM [1]: 6.34 MEQ/L
SODIUM [1]: 144.12 MEQ/L
TOTAL BILIRUBIN [1]: 0.18 mg/dL
TOTAL PROTEIN [1]: 6.08 G/DL
URIC ACID [1]: 0.65 mg/dL
ABSOLUTE BASOPHIL [2]: 0 CELLS/uL
ABSOLUTE EOSINOPHIL [2]: 31.17 CELLS/uL
ABSOLUTE LYMPHOCYTE [2]: 7918.33 CELLS/uL
ABSOLUTE MONOCYTE [2]: 58.33 CELLS/uL
ABSOLUTE SEGMENTED NEUTROPHIL [2]: 725.5 CELLS/uL
BASOPHIL [2]: 0%
EOSINOPHIL [2]: 0.33%
ERYTHROCYTE COUNT [2]: 5.32 x10E6/uL
HEMATOCRIT [2]: 33.53%
HEMOGLOBIN [2]: 13.17 G/DL
LEUKOCYTE COUNT [2]: 8.73 x10E3/uL
LYMPHOCYTE [2]: 90.33%
MEAN CORPUSCULAR HEMOGLOBIN [2]: 24.82 pg
MEAN CORPUSCULAR HEMOGLOBIN CONCENTRATION [2]: 39.33 G/DL
MEAN CORPUSCULAR VOLUME [2]: 63.12 fL
MONOCYTE [2]: 0.67%
NEUTROPHIL [2]: 8.67%
NUCLEATED RED BLOOD CELLS [2]: 0 /100WBC
PLATELET COUNT [2]: 1144.83 x10E3/uL
ALANINE AMINOTRANSFERASE [2]: 60.5 u/L
ALBUMIN [2]: 3.97 G/DL
ALKALINE PHOSPHATASE [2]: 343.17 u/L
ASPARTATE AMINOTRANSFERASE [2]: 80.83 u/L
BLOOD UREA NITROGEN [2]: 15 mg/dL
CARBON DIOXIDE [2]: 31 mmol/L
CHLORIDE [2]: 99.75 MEQ/L
CHOLESTEROL [2]: 71.5 mg/dL
CREATINE PHOSPHOKINASE [2]: 237.17 u/L
CREATININE [2]: 0.17 mg/dL
GLUCOSE [2]: 137 mg/dL
LACTATE DEHYDROGENASE [2]: 146.17 u/L
LIPASE [2]: 11.5 u/L
PHOSPHORUS [2]: 10.13 mg/dL
POTASSIUM [2]: 6 MEQ/L
SODIUM [2]: 145 MEQ/L
TOTAL BILIRUBIN [2]: 0.13 mg/dL
TOTAL PROTEIN [2]: 5.82 G/DL
URIC ACID [2]: 0.62 mg/dL
ABSOLUTE BASOPHIL [3]: 0 CELLS/uL
ABSOLUTE EOSINOPHIL [3]: 0 CELLS/uL
ABSOLUTE LYMPHOCYTE [3]: 8155 CELLS/uL
ABSOLUTE MONOCYTE [3]: 60.33 CELLS/uL
ABSOLUTE SEGMENTED NEUTROPHIL [3]: 851.33 CELLS/uL
BASOPHIL [3]: 0%
EOSINOPHIL [3]: 0%
ERYTHROCYTE COUNT [3]: 5.22 x10E6/uL
HEMATOCRIT [3]: 32.5%
HEMOGLOBIN [3]: 12.8 G/DL
LEUKOCYTE COUNT [3]: 9.07 x10E3/uL
LYMPHOCYTE [3]: 90%
MEAN CORPUSCULAR HEMOGLOBIN [3]: 24.53 pg
MEAN CORPUSCULAR HEMOGLOBIN CONCENTRATION [3]: 39.4 G/DL
MEAN CORPUSCULAR VOLUME [3]: 62.3 fL
MONOCYTE [3]: 0.67%
NEUTROPHIL [3]: 9.33%
NUCLEATED RED BLOOD CELLS [3]: 0 /100WBC
PLATELET COUNT [3]: 925.67 x10E3/uL
ALANINE AMINOTRANSFERASE [3]: 55.67 u/L
ALBUMIN [3]: 3.93 G/DL
ALKALINE PHOSPHATASE [3]: 332.67 u/L
ASPARTATE AMINOTRANSFERASE [3]: 81.67 u/L
BLOOD UREA NITROGEN [3]: 13.67 mg/dL
CARBON DIOXIDE [3]: 34.33 mmol/L
CHLORIDE [3]: 98.67 MEQ/L
CHOLESTEROL [3]: 82.67 mg/dL
CREATINE PHOSPHOKINASE [3]: 214.67 u/L
CREATININE [3]: 0.14 mg/dL
GLUCOSE [3]: 150.67 mg/dL
LACTATE DEHYDROGENASE [3]: 142.33 u/L
LIPASE [3]: 9.33 u/L
PHOSPHORUS [3]: 10.87 mg/dL
POTASSIUM [3]: 5.64 MEQ/L
SODIUM [3]: 144.73 MEQ/L
TOTAL BILIRUBIN [3]: 0.17 mg/dL
TOTAL PROTEIN [3]: 5.97 G/DL
URIC ACID [3]: 0.47 mg/dL
